Data taken from patent publication US9833497B2, “Human originated EGF domain proteins and use of the same” (CHENGDU SOURCEBIO LIMITED-LIABILITY COMPANY, priority 2013, dated 2017).

What was measured:
Type in all cases: cell-based
E. coli DH5α = test: Antibacterial activity: MIC and growth curve against E. coli DH5α in 96-well plate; details: minimal inhibitory concentration against E. coli DH5α; 96-well plate, 5×10^5 CFU/mL, 37° C., judged after 8 h
Procedure, shortened: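 Log-phase DH5α (OD600 about 0.5, 37° C, 185 rpm in LB) was pelleted, resuspended in fresh LB and seeded at 5×10^5 CFU/mL with recombinant protein at 50, 25 and 12.5 μg/mL (two-fold series), in triplicate. Plates were shaken at 175 rpm, 37° C, and OD600 was read every 30 min. MIC was the lowest concentration with no growth.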

E. coli BL21 = test: MIC against Gram-negative bacteria: E. coli BL21; details: 5×10^5 CFU/mL
Procedure, shortened: (§1)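 MIC, the lowest recombinant protein concentration giving no bacterial growth, found by two-fold serial dilution of human EGF-domain proteins in triplicate. Inoculum 5×10^5 CFU/mL in LB from cultures at McFarland 0.5; plates incubated at 37° C, 175 rpm shaking.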

Pseudomonas aeruginosa = test: MIC against Gram-negative bacteria: Pseudomonas aeruginosa; details: 5×10^5 CFU/mL; for MIC: P. aeruginosa
Procedure, shortened: as §1

Klebsiella pneumonia = test: MIC against Gram-negative bacteria: Klebsiella pneumonia; details: 5×10^5 CFU/mL; for MIC: K. pneumonia
Procedure, shortened: as §1

Enterobacter cloacae = test: MIC against Gram-negative bacteria: Enterobacter cloacae; details: 5×10^5 CFU/mL; for MIC: E. cloacae
Procedure, shortened: as §1

Aeromonas hydrophila = test: MIC against Gram-negative bacteria: Aeromonas hydrophila; details: 5×10^5 CFU/mL; for MIC: A. hydrophila
Procedure, shortened: as §1

Citrobacter diversus = test: MIC against Gram-negative bacteria: Citrobacter diversus; details: 5×10^5 CFU/mL; for MIC: C. diversus
Procedure, shortened: as §1

Moraxella catarrhalis = test: MIC against Gram-negative bacteria: Moraxella catarrhalis; details: 5×10^5 CFU/mL; for MIC: M. catarrhalis
Procedure, shortened: as §1

Proteus mirabilis = test: MIC against Gram-negative bacteria: Proteus mirabilis; details: 5×10^5 CFU/mL; for MIC: P. mirabilis
Procedure, shortened: as §1

Proteus vulgaris = test: MIC against Gram-negative bacteria: Proteus vulgaris; details: 5×10^5 CFU/mL; for MIC: P. vulgaris
Procedure, shortened: as §1

Serratia marcescens = test: MIC against Gram-negative bacteria: Serratia marcescens; details: 5×10^5 CFU/mL; for MIC: S. marcescens
Procedure, shortened: as §1

[1] = E. coli BL21, 96-well plate, 37° C., 10 h
[2] = Pseudomonas aeruginosa, 96-well plate, 37° C., 10 h
[3] = Klebsiella pneumonia, 96-well plate, 37° C., 10 h
[4] = Enterobacter cloacae, 96-well plate, 37° C., 10 h
[5] = Aeromonas hydrophila, 96-well plate, 37° C., 10 h
[6] = Citrobacter diversus, 96-well plate, 37° C., 10 h
[7] = Moraxella catarrhalis, 96-well plate, 37° C., 10 h
[8] = Proteus mirabilis, 96-well plate, 37° C., 10 h
[9] = Proteus vulgaris, 96-well plate, 37° C., 10 h
[10] = Serratia marcescens, 96-well plate, 37° C., 10 h
[11] = 10 h cultivation at 37° C., two-fold serial dilution
[12] = E. coli BL21, 10 h cultivation at 37° C.

PRT554 (CNCESDFTDGTCEDLTGRCYCRPNFSGERCDVCAEGFTGFPSCYPT; listed as Homo sapiens)
25 µg/mL: MIC against E. cloacae (Enterobacter cloacae; 96-well plate, 37° C., 10 h) | MIC against C. diversus (Citrobacter diversus; 96-well plate, 37° C., 10 h) | MIC against P. mirabilis (Proteus mirabilis; 96-well plate, 37° C., 10 h) | MIC against S. marcescens (Serratia marcescens; 96-well plate, 37° C., 10 h)
12.5 µg/mL: MIC (E. coli DH5α) | MIC against P. aeruginosa (Pseudomonas aeruginosa; 96-well plate, 37° C., 10 h) | MIC against A. hydrophila (Aeromonas hydrophila; 96-well plate, 37° C., 10 h) | MIC against P. vulgaris (Proteus vulgaris; 96-well plate, 37° C., 10 h)
50 µg/mL: MIC against E. coli BL21 (E. coli BL21; 96-well plate, 37° C., 10 h) | MIC against K. pneumonia (Klebsiella pneumonia; 96-well plate, 37° C., 10 h) | MIC against M. catarrhalis (Moraxella catarrhalis; 96-well plate, 37° C., 10 h)

PRT1257 (CMNKDHGCAHICRETPKGGVACDCRPGFDLAQNQKDC; listed as Homo sapiens)
50 µg/mL: MIC against E. coli BL21 (E. coli BL21; [1]) | MIC against C. diversus (Citrobacter diversus; [6]) | MIC against P. mirabilis (Proteus mirabilis; [8]) | MIC against S. marcescens (Serratia marcescens; [10])
12.5 µg/mL: MIC (E. coli DH5α) | MIC against K. pneumonia (Klebsiella pneumonia; [3]) | MIC against M. catarrhalis (Moraxella catarrhalis; [7]) | MIC against P. vulgaris (Proteus vulgaris; [9])
25 µg/mL: MIC against P. aeruginosa (Pseudomonas aeruginosa; [2]) | MIC against E. cloacae (Enterobacter cloacae; [4]) | MIC against A. hydrophila (Aeromonas hydrophila; [5])

PRT1138 (EINECDSDPCMNGGLCHESTIPGQFVCLCPPLYTGQFCH; listed as Homo sapiens)
25 µg/mL: MIC (E. coli DH5α) | MIC P. aeruginosa (Pseudomonas aeruginosa; [11]) | MIC E. cloacae (Enterobacter cloacae; [11]) | MIC A. hydrophila (Aeromonas hydrophila; [11]) | MIC M. catarrhalis (Moraxella catarrhalis; [11]) | MIC P. vulgaris (Proteus vulgaris; [11])
12.5 µg/mL: MIC K. pneumonia (Klebsiella pneumonia; [11]) | MIC P. mirabilis (Proteus mirabilis; [11])
50 µg/mL: MIC E. coli BL21 (E. coli BL21; [11]) | MIC C. diversus (Citrobacter diversus; [11]) | MIC S. marcescens (Serratia marcescens; [11])

PRT493 (CDCPHTQNTCDPETGECVCPPHTQGVKCEECEDGHWGYDAEVGCQA; listed as Homo sapiens)
50 µg/mL: MIC against E. coli BL21 (E. coli BL21; 96-well plate, 37° C., 10 h) | MIC against K. pneumonia (Klebsiella pneumonia; 96-well plate, 37° C., 10 h) | MIC against M. catarrhalis (Moraxella catarrhalis; 96-well plate, 37° C., 10 h)
25 µg/mL: MIC against E. cloacae (Enterobacter cloacae; 96-well plate, 37° C., 10 h) | MIC against C. diversus (Citrobacter diversus; 96-well plate, 37° C., 10 h) | MIC against P. mirabilis (Proteus mirabilis; 96-well plate, 37° C., 10 h) | MIC against S. marcescens (Serratia marcescens; 96-well plate, 37° C., 10 h)
12.5 µg/mL: MIC (E. coli DH5α) | MIC against P. aeruginosa (Pseudomonas aeruginosa; 96-well plate, 37° C., 10 h) | MIC against A. hydrophila (Aeromonas hydrophila; 96-well plate, 37° C., 10 h) | MIC against P. vulgaris (Proteus vulgaris; 96-well plate, 37° C., 10 h)

PRT62 (ASGDCVPSPCHNGGTCLEEEEGVRCLCLPGYGGDLCD; listed as Homo sapiens)
12.5 µg/mL: MIC (E. coli DH5α) | MIC (μg/mL) P. aeruginosa (Pseudomonas aeruginosa; [2]) | MIC (μg/mL) K. pneumonia (Klebsiella pneumonia; [3]) | MIC (μg/mL) E. cloacae (Enterobacter cloacae; [4]) | MIC (μg/mL) C. diversus (Citrobacter diversus; [6]) | MIC (μg/mL) P. mirabilis (Proteus mirabilis; [8]) | MIC (μg/mL) P. vulgaris (Proteus vulgaris; [9])
100 µg/mL: MIC (μg/mL) E. coli BL21 (E. coli BL21; [1])
25 µg/mL: MIC (μg/mL) A. hydrophila (Aeromonas hydrophila; [5]) | MIC (μg/mL) M. catarrhalis (Moraxella catarrhalis; [7]) | MIC (μg/mL) S. marcescens (Serratia marcescens; [10])

PRT436 (DINECEHRNHTCNLQQTCYNLQGGFKCIDPIRCEEPYLRISDNRCM; listed as Homo sapiens)
12.5 µg/mL: MIC (E. coli DH5α) | MIC (Enterobacter cloacae; 10 h cultivation at 37° C.) | MIC (Citrobacter diversus; 10 h cultivation at 37° C.) | MIC (Proteus mirabilis; 10 h cultivation at 37° C.)
100 µg/mL: MIC (Serratia marcescens; 10 h cultivation at 37° C.)
25 µg/mL: MIC (E. coli BL21; [12]) | MIC (Klebsiella pneumonia; 10 h cultivation at 37° C.)
50 µg/mL: MIC (Pseudomonas aeruginosa; 10 h cultivation at 37° C.) | MIC (Aeromonas hydrophila; 10 h cultivation at 37° C.) | MIC (Moraxella catarrhalis; 10 h cultivation at 37° C.) | MIC (Proteus vulgaris; 10 h cultivation at 37° C.)

PRT418 (DINECSSSPCSQECANVYGSYQCYCRRGYQLSDVDGVTCE; listed as Homo sapiens)
25 µg/mL: MIC (Aeromonas hydrophila; 10 h cultivation at 37° C.) | MIC (Moraxella catarrhalis; 10 h cultivation at 37° C.) | MIC (Proteus vulgaris; 10 h cultivation at 37° C.)
12.5 µg/mL: MIC (E. coli DH5α) | MIC (E. coli BL21; [12]) | MIC (Pseudomonas aeruginosa; 10 h cultivation at 37° C.) | MIC (Enterobacter cloacae; 10 h cultivation at 37° C.) | MIC (Proteus mirabilis; 10 h cultivation at 37° C.)
50 µg/mL: MIC (Klebsiella pneumonia; 10 h cultivation at 37° C.) | MIC (Citrobacter diversus; 10 h cultivation at 37° C.) | MIC (Serratia marcescens; 10 h cultivation at 37° C.)
